Reference: US8299083B2, “PDE5 inhibitor compositions and methods for treating cardiac indications” (The Johns Hopkins University, priority 2004, dated 2012)

Experiments:
[1] = system: AktTG and NTG mice; assay: Transgenic mice with cardiac-targeted Akt overexpression (AktTG) and NTG controls: pressure-volume analysis, echo, heart weight; format: in vivo, mouse; details: for EDP / EDV / EF / ESP / ESV / Eesn / HR / PMXI / Tau / dP/dtmax/IP / dPdtmax / dPdtmin: sildenafil 100 mg/kg/day
Description: In vehicle-treated animals (age 4-5 months), AktTG hearts were larger and had reduced heart function (FIG. 10E and Table 3). […]
Transthoracic two-dimensional guided M-mode echocardiography was performed in non-anesthetized mice. Measurements were done using an echocardiography system, the SEQUOIA C256 (Siemens, Munich, Del.) with the 15 MHz linear-array transducer. Intact heart hemodynamic analysis was performed as described^90. These studies employed a four-electrode pressure-volume catheter (model SPR-839, Millar Instruments) placed through the left ventricular apex in the open chest anesthetized animal and positioned along the longitudinal axis to record chamber volume by impedance and pressure by micromanometry.
All hemodynamic data were recorded using custom developed software, digitizing signals at 2 KHz. End-diastolic and end-systolic volumes were the average of volumes measured during isovolumic contraction and relaxation, respectively. ESP was the pressure at maximal chamber elastance (P/V ratio)^1. EDP was the diastolic pressure at the lower right hand corner of the pressure-volume loop. Cardiac output was determined from a perivascular flow probe (Transonics, Ithica, N.Y.) placed around the thoracic aorta. Ea was equal to the ratio of end-systolic pressure divided by stroke volume. The volume catheter signal was calibrated for both gain and offset. Gain was determined by setting the catheter-derived cardiac output (equal to pressure-volume loop width times heart rate) to that obtained from the calibrated flow probe value. Offset was determined using the hypertonic saline method Ventricular power was equal to the instantaneous product of pressure times flow, and the peak power was divided by EDV to obtain the power index PMXI^79. […] The slope of this relation Ees was normalized by heart mass and expressed per gm heart mass. Msw was derived from the linear relation between stroke work and EDV from the same set of variably loaded cardiac cycles used to derive Eesn, and is another load-independent assessment of systolic contractile function^4. Tau was obtained from the model: P=Po+ae^−t/□ . . . fitting data during isovolumic relaxation. dP/dt was derived from a digital filter (5-point weighted slope). PFR/EDV was derived from the maximal first derivative of the volume signal during early diastole, divided by EDV.

[2] = system: total cGMP-esterase activity; assay: cGMP-esterase (low Km cGMP phosphodiesterase) activity of heart and isolated myocytes; format: biochemical, mouse
[3] = system: calcineurin; assay: Calcineurin expression in TAC hearts (Western blot); format: in vivo, mouse; details: 1 and 9 weeks of TAC
Description: Protein was prepared from snap-frozen heart tissue using extraction buffer as described previously^90. Antibodies included calcineurin (1:2000 dilution, BD Transduction Laboratories (San Diego, Calif.), GSK3β, Ser9-phospho-GSK313, Akt, Ser473-phospho-Akt, ERK, Thr202/Thr204-phospho-ERK (1:1000 dilution, Cell Signaling Technology, Beverly, Mass.). Primary antibody binding was visualized by horse radish peroxidase-conjugated secondary antibodies and enhanced chemiluminescence (Pierce, Rockford, Ill.).

[4] = system: PI3Kα; assay: PI3Kα activity in TAC hearts; format: in vivo, mouse; details: 3 week TAC
Description: PI3Kα activity was assessed by Elisa assay following immunoprecipitation of PI3K (Seize X IP Kit, Pierce) using a p85α monoclonal antibody (Cell Signaling), with activity measured by fluorescence polarization (Molecular Devices, Perkin-Elmer Victor 3 plate reader). Akt activity (IP with s473-pAkt Ab, GSK-3 fusion protein substrate) was performed using a commercial kit (Cell Signaling Technology, Beverly, Mass.). PKG-1 activity was assayed by calorimetric analysis, CycLex (Clinisciences, Montrouge, FR) from whole heart lysates.

[5] = system: NOS3; assay: NOS3 dimer/monomer Western blot in TAC hearts; format: in vivo, mouse; details: 3 weeks TAC
[6] = system: MMP-2 and MMP-9; assay: Cardiac gelatinase zymography; format: in vivo, mouse; details: 3W TAC, co-treatment
Description: In Vitro gelatin lysis by MMP-2 and MMP-9 was assessed by zymography. Briefly, modified Laemmli buffer without mercaptoethanol was added to lysed tissue samples and loaded on 10% gelatin (Invitrogen Corp., San Diego, Calif.). After electrophoresis, gels were washed twice with renaturing buffer at room temperature followed by developing buffer (Invitrogen Corp., San Diego, Calif.), then stained with a commercially available Coomassie stain to visualize lytic bands (SIMPLYBLUe, Invitrogen Corp., San Diego, Calif.).

[7] = system: RhoA, ROCK1 and ROCK2; assay: RhoA and Rho kinase expression and activity in TAC hearts; format: in vivo, mouse; details: 3 weeks TAC
Description: RhoA activity assay was performed by immunoprecipitation using a commercially available immobilized antibody (SEIZE X IP, Pierce Biotechnology, IL). The antibody used was a rabbit polyclonal antibody raised against RboA (Upstate, NY [1:2500]) and subsequent commercial activity assay according to manufacturer's specification (Upstate Biotechnology, NY).
Protein lysates from whole myocardium and isolated cardiac myocytes were obtained using lysis buffer (Cell Signaling Technology, Beverly, Mass.) with mini-protease inhibitor (Roche, Ind.) and 5% Triton (Sigma Chemical (St. Louis, Mo.). Following 12,000 g centrifugation for 30 minutes, protein was quantified (Pierce Rockford, Ill.), NUPage LDS sample buffer added (Biorad, Hercules, Calif.), and lysates electrophoresed on NuPAGE 4-12% Bis-Tris polyacrylamide gels (Invitrogen, San Diego, Calif.). Membranes were incubated with rabbit polyclonal antibodies raised against ROCK1 or ROCK2 (Cell Signaling Technology, Beverly, Mass.) [1:3,000].

[8] = system: STAT3; assay: IL-6 induced STAT3 activation in neonatal rat myocytes; format: cell-based; details: sildenafil 1 μM
Description: Myocardial tissue extract was electrophoresed in SDS-New Page gel, and probed for both tyrosine phosphorylated (Tyr705) and total Stat3. In additional studies, rat neonatal myocytes were cultured, then exposed to interleukin 6 (IL-6, Cell Signaling, 100 ng/ml) for one hour. […] In other studies, cells were pre-transfected (Lipofectamine™, Invitrogen) with mixed oligonucleotide silencing RNAs for STAT3 (siRNA, SmarTTpool Stat3). Protein extracts were obtained from myocyte extracts after the 1 hour incubation period, and probed for phosphorylated and total protein levels of Stat1 (Tyr701) and Stat3 (Tyr705) (Cell Signaling Inc.). siRNA was transfected into neonatal myocytes.

With `CCCc1nn(C)c2c(=O)[nH]c(-c3cc(S(=O)(=O)N4CCN(C)CC4)ccc3OCC)nc12` [sildenafil] the “progressive hypertrophy in AktTG mice (serial echo, heart weight/tibia length)” value ([1]; AktTG, 6-week period) was “did not blunt progressive hypertrophy”, the EDP ([1]; AktTG) was 8.9 ± 1.1 and the EDV ([1]; AktTG) was 57.6 ± 5.4. It also gave an EF ([1]; AktTG) of 31.8 ± 2.1, an ESP ([1]; AktTG) of 90.1 ± 0.9 and an ESV ([1]; AktTG) of 39.6 ± 4.5. It also gave an Eesn ([1]; AktTG) of 21.5 ± 2.9, an HR ([1]; AktTG) of 569.5 ± 47.4 and a PMXI ([1]; AktTG) of 17.8 ± 1.9. The Tau ([1]; AktTG) was 10.0 ± 0.6, the dP/dtmax/IP ([1]; AktTG) was 128.5 ± 2.9 and the dPdtmax ([1]; AktTG) was 6993 ± 156. It also gave a dPdtmin ([1]; AktTG) of −6241 ± 289, an EDP ([1]; NTG) of 4.9 ± 1.2 and an EDV ([1]; NTG) of 44.5 ± 4.9. For the same molecule, the EF ([1]; NTG) was 56.7 ± 3.5, the ESP ([1]; NTG) was 96.7 ± 4.7 and the ESV ([1]; NTG) was 19.4 ± 3.0. It also gave an Eesn ([1]; NTG) of 39.9 ± 1.5, an HR ([1]; NTG) of 511.6 ± 31.4 and a PMXI ([1]; NTG) of 25.9 ± 2.2. The Tau ([1]; NTG) was 7.4 ± 0.6, the dP/dtmax/IP ([1]; NTG) was 176.4 ± 14.8 and the dPdtmax ([1]; NTG) was 10133 ± 791. The dPdtmin ([1]; NTG) was −9267 ± 417, the “proportion of total cGMP-esterase activity attributable to PDE5” value ([2]; 3 week TAC hearts) was ~60% and the “PDE5A-dependent cGMP-esterase activity by radio-enzyme assay” value ([2]; NTG, n=9) was 32±17.3%. The “percent of total cGMP-esterase activity blocked by co-incubation” value ([2]; sham control hearts (baseline)) was “approximately 30%”, the calcineurin protein expression [3] was “significantly reduced” and the “TAC-increased PI3Kα activity” value [4] was “suppressed”. For the same molecule, the “NOS3 dimer (280 kD) level” value [5] was “prevented the loss of NOS dimer”, the “gelatinase activity (gel lysis)” value [6] was “largely inhibited” and the “RhoA and Rho-kinase expression and activity” value [7] was “inhibits RhoA, Rho-Kinase1 (ROCK1) and Rho-Kinase2 protein expression and activity”. For the same molecule, the “IL-6 induced STAT activation” value [8] was “prevented the STAT activation”.
